Results reported in paper PMC7578299, “The antiviral effects of baloxavir marboxil against influenza A virus infection in ferrets” (Influenza and Other Respiratory Viruses, 2020).
Several values for one entry are separate records, joined by “and”; a condition that tells them apart may be missing. Identical values can stand only once.

Experiments:
[1] = Metabolic stability in liver microsomes, rat; format: in vitro ADME; details: for % Residual in liver microsome: 0.5 mg/mL, 2 μmol/L, 37°C, mean of duplicates; for % Residual in liver microsome Individual value: duplicates
Procedure: (§1) Liver microsomes were prepared from ferrets, rats, dogs, and monkeys, as previously described. ^28 Human liver microsomes were obtained from Sekisui‐XenoTech, LLC and pooled (n = 15). Metabolic stability of the compounds in liver microsomes was tested in duplicate. Oseltamivir and cefcapene pivoxil were used as reference compounds. Liver microsomes at 0.5 mg/mL concentration (final volume of 0.2 mL) were incubated in Tris‐HCl buffer (pH 7.4), containing 50 mmol/L Tris‐HCl, 150 mmol/L KCl, 10 mmol/L MgCl2. The hydrolysis reaction was initiated by applying the test compound solution (final concentration 2 μmol/L). After incubation for 10, 20, and 30 minutes at 37°C, the hydrolysis was terminated by the addition of twofold volume of ice‐cold acetonitrile/methanol (1:1, v/v). Samples were centrifuged at 3000 rpm for 10 minutes prior to LC‐MS/MS analysis of compounds in the supernatants.

[2] = Metabolic stability in liver microsomes, dog; format: in vitro ADME; details: for % Residual in liver microsome: 0.5 mg/mL, 2 μmol/L, 37°C, mean of duplicates; for % Residual in liver microsome Individual value: duplicates
Procedure: as §1

[3] = Metabolic stability in liver microsomes, monkey; format: in vitro ADME; details: monkey; for % Residual in liver microsome: 0.5 mg/mL, 2 μmol/L, 37°C, mean of duplicates; for % Residual in liver microsome Individual value: duplicates
Procedure: as §1

[4] = Metabolic stability test, control (microsome free); format: in vitro ADME; details: microsome free; for % Residual, Control (Microsome free): 2 μmol/L, 37°C, mean of duplicates; for % Residual Individual value, Control (Microsome free): duplicates
Procedure: as §1

[5] = system: Influenza A virus A/Kadoma/3/2006 (H1N1); experiment: Experiment 1: infected ferrets, treatment starting at Day 1 p.i. (virus titer in nasal washes, body temperature); format: in vivo, ferret; details: for reduction of virus titers by Day 2: treatment at Day 1 p.i.
[6] = system: cap-dependent endonuclease (CEN); parameters: method as in PMID 30316915; details: in vitro studies; cited from earlier work

Structure (SMILES): COC(=O)OCOc1c2n(ccc1=O)N([C@@H]1c3ccccc3SCc3c1ccc(F)c3F)[C@@H]1COCCN1C2=O [BXM, Baloxavir marboxil]
- % Residual in liver microsome ([1]; 10 min): 25.3%
- % Residual in liver microsome ([1]; 20 min): 4.6%
- % Residual in liver microsome ([1]; 30 min): 0.6%
- % Residual in liver microsome Individual value ([1]; 10 minutes): 25.3% and 25.2%
- % Residual in liver microsome Individual value ([1]; 20 minutes): 4.9% and 4.4%
- % Residual in liver microsome Individual value ([1]; 30 minutes): 0.7% and 0.5%
- % Residual in liver microsome ([2]; 10 min): 0.1%
- % Residual in liver microsome ([2]; 20 min): 0.1%
- % Residual in liver microsome ([2]; 30 min): 0.0%
- % Residual in liver microsome Individual value ([2]; 10 minutes): 0.1%
- % Residual in liver microsome Individual value ([2]; 20 minutes): 0.1%
- % Residual in liver microsome Individual value ([2]; 30 minutes): 0.0% and 0.1%
- % Residual in liver microsome ([3]; 10 min): 0.0%
- % Residual in liver microsome ([3]; 20 min): 0.0%
- % Residual in liver microsome ([3]; 30 min): 0.0%
- % Residual in liver microsome Individual value ([3]; 10 minutes): 0.0%
- % Residual in liver microsome Individual value ([3]; 20 minutes): 0.0%
- % Residual in liver microsome Individual value ([3]; 30 minutes): 0.0%
- % Residual, Control (Microsome free) ([4]; 10 min): 81.3%
- % Residual, Control (Microsome free) ([4]; 20 min): 81.7%
- % Residual, Control (Microsome free) ([4]; 30 min): 92.1%
- % Residual Individual value, Control (Microsome free) ([4]; 10 minutes): 72.2% and 90.3%
- % Residual Individual value, Control (Microsome free) ([4]; 20 minutes): 81.2% and 82.1%
- % Residual Individual value, Control (Microsome free) ([4]; 30 minutes): 86.1% and 98.1%
- reduction of virus titers by Day 2 ([5]; BXM 10 mg/kg twice daily): ≥ 3 log10 of the 50% tissue culture infective doses
- reduction of virus titers by Day 2 ([5]; BXM 30 mg/kg twice daily): ≥ 3 log10 of the 50% tissue culture infective doses
- virus titer in nasal washes ([5]; Day 2 p.i., BXM 30 mg/kg twice daily for 1 day from Day 1 p.i., undetectable level): < 0.5 log10 TCID50/mL
- CEN inhibitory activity, fold lower than that of BXA [6]: ≥ 200 fold
